Experimental findings from PubChem BioAssay AID624129 (Sanford-Burnham Center for Chemical Genomics, 2012) are described below.

For orientation: IC50 means the concentration that inhibits the measured activity by half. A lower IC50 goes with inhibition by little substance. In general, inhibition refers to the relative decrease from the control value, in per cent.

Active and inactive are the calls of the source. How the calls were made is not given here.

The target in this assay is C-X-C chemokine receptor type 6 (Homo sapiens) (UniProt O00574). Nature of the assay: CXCR6 receptor antagonists, dose response, cell-based, beta-arrestin, DiscoveRx, APJ panel, uHTS hits (AID 624129). To be noted: CXCR6 beta-arrestin (DiscoveRx) antagonist cell assay; for outcome: CXCR6, dose range 1.
[1] abbreviates: CXCR6, dose range 1, mean IC50 across replicates.
Setting [2] is: CXCR6, run 2, dose range 1, at 79 µM (top of the series).

Sequence of C-X-C chemokine receptor type 6 (Homo sapiens) (O00574 whole entry, looked up): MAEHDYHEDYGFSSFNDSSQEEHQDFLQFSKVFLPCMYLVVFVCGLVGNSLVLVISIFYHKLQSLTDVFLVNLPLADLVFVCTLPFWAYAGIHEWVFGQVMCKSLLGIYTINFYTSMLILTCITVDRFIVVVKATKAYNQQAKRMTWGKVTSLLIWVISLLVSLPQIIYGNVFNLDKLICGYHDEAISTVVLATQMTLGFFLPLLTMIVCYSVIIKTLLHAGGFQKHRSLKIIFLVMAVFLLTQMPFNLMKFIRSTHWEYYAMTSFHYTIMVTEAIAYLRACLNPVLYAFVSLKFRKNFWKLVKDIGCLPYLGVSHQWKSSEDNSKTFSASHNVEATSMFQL

Consider `C[n+]1ccc(/C=N/Nc2nc(Cl)c(C#N)c(Cl)c2Cl)cc1`, for which the result was inactive. The compound also yielded a 50% inhibitory concentration (IC50) under setting [1] of 44.8 µM. For the same compound, the IC50 (CXCR6, run 1, dose range 2) stood at 23.6 µM. Besides, under setting [2], the inhibition amounted to 90.5%. Further, the IC50 (CXCR6, run 2, dose range 2) was 66 µM.
Consider `CCOC(=O)[C@]12Cc3cc(Cl)ccc3[C@H]1N(C1CCCCC1)C(=O)c1cc(OC)ccc12`, for which the result was inactive. Under setting [1], this compound returned an IC50 of 17.8 µM. The same compound returned an IC50 (CXCR6, run 1, dose range 2) of 16.2 µM. Moreover, the inhibition under setting [2] is 113%. Where the note is “CXCR6, run 2, dose range 2”, the IC50 turned out to be 19.5 µM.
Regarding `O=[N+]([O-])c1ccc(N/N=C/c2sc(N3CCOCC3)nc2-c2ccccc2)c(S(=O)(=O)Nc2ccc(Cl)cc2)c1`, the result was inactive. Under setting [1], this compound yielded an IC50 of 55.1 µM. Also, under “CXCR6, run 1, dose range 2”, the IC50 was determined as 72.8 µM. For the same compound, the inhibition under setting [2] came to 99.6%. Besides, the IC50 (CXCR6, run 2, dose range 2) was 37.3 µM.
For the compound `COc1ccc(C(=O)/C=C/Sc2nc3ccccc3o2)cc1`, the outcome was inactive. The same compound yielded an IC50 under setting [1] of 44.8 µM. This compound also came in with an IC50 (CXCR6, run 1, dose range 2) of 21.7 µM. The inhibition under setting [2] is 61.3%. Where the note is “CXCR6, run 2, dose range 2”, this compound came in with an IC50 of 67.8 µM.
Turning to `Nc1ccccc1C#CC(=O)c1ccccc1`, the outcome was inactive. This compound also returned an IC50 under setting [1] of 14.8 µM. Also, the IC50 (CXCR6, run 1, dose range 2) came out at 14.2 µM. For the same compound, under setting [2], the inhibition was 111%. Also, for the setting “CXCR6, run 2, dose range 2”, the IC50 came to 15.3 µM.
For `CNC(=O)c1nnsc1S(=O)c1ccc(Cl)cc1` (stereo not given), the outcome was inactive. Besides, the IC50 under setting [1] was found to be 13 µM. Further, the half-inhibitory concentration (IC50) (CXCR6, run 1, dose range 2) is 13.2 µM. In addition, the inhibition under setting [2] is 112%. The compound also came in with a 50% inhibitory concentration (IC50) (CXCR6, run 2, dose range 2) of 12.7 µM.
As for `C/C(=N\Nc1nc2ccccc2[nH]1)c1ccccn1`, the result was active. This compound also showed an IC50 under setting [1] of 3.33 µM. For the setting “CXCR6, run 1, dose range 2”, this compound had an IC50 of 3.33 µM. Besides, the inhibition under setting [2] was -12.1%. Further, where the note is “CXCR6, run 2, dose range 2”, the IC50 is more than 79 µM.
In the case of `CCCOc1ccc(CN(CCC#N)C(=S)NC(=O)c2ccccc2)cc1`, the outcome was inactive. The same compound came in with an IC50 under setting [1] of 20 µM. Where the note is “CXCR6, run 1, dose range 2”, the IC50 came out at 10.4 µM. The inhibition under setting [2] was found to be 68.9%. The IC50 (CXCR6, run 2, dose range 2) was determined as 29.6 µM.
With `O=C(Nc1ccc(F)cc1)c1nc(S(=O)(=O)Cc2ccccc2)ncc1Cl`, the result was inactive. For the same compound, the IC50 under setting [1] was 12.9 µM. Besides, the IC50 (CXCR6, run 1, dose range 2) stood at 12.5 µM. The inhibition under setting [2] amounted to 112%. The same compound gave an IC50 (CXCR6, run 2, dose range 2) of 13.4 µM.
Take `CC1=C(CO)C(=O)OC([C@@H](C)C2CC[C@H]3C4C[C@H]5O[C@]56[C@@H](O)C=CC(=O)[C@]6(C)C4CC[C@]23C)C1` (stereo not given in full): the result was inactive. The compound further showed an IC50 under setting [1] of 14 µM. This compound returned a concentration for half-maximal inhibition (IC50) (CXCR6, run 1, dose range 2) of 12.2 µM. In addition, the inhibition under setting [2] was determined as 112%. The compound also displayed an IC50 (CXCR6, run 2, dose range 2) of 15.8 µM.
`Cc1ccc(-n2c(SCCN)nnc2-c2cccc(C)c2)cc1`: the result was inactive. This compound had a half-inhibitory concentration (IC50) under setting [1] of 66.9 µM. This compound displayed an IC50 (CXCR6, run 1, dose range 2) of 66.8 µM. For the same compound, the inhibition under setting [2] amounted to 76.2%. The compound further registered an IC50 (CXCR6, run 2, dose range 2) of 67 µM.
Turning to `CC(Oc1ccccc1)C(=O)Nc1nc(-c2ccccn2)cs1` (stereo not given), the result was inactive. Under setting [1], this compound displayed a concentration for half-maximal inhibition (IC50) of 14.3 µM. For the setting “CXCR6, run 1, dose range 2”, this compound showed an IC50 of 11.4 µM. Also, under setting [2], the inhibition was found to be 97.6%. The compound further came in with an IC50 (CXCR6, run 2, dose range 2) of 17.3 µM.
In the same order, the values of `O=C(C#Cc1cccc([N+](=O)[O-])c1)c1ccccc1` are “inactive”, 13.5 µM, 12.6 µM, 108% and 14.4 µM.
`CC(=O)Nc1nc2ccccc2n1CCOc1ccccc1Cl`: the outcome was inactive. Besides, under setting [1], the IC50 is 11.9 µM. In addition, where the note is “CXCR6, run 1, dose range 2”, the IC50 was 8.79 µM. Under setting [2], the inhibition was found to be 80.9%. Further, where the note is “CXCR6, run 2, dose range 2”, the IC50 was determined as 15 µM.
With `N=C1SCC(=O)N1c1ncc(Cc2ccccc2Cl)s1`, the outcome was inactive. Besides, the IC50 under setting [1] stood at 12 µM. Besides, the IC50 (CXCR6, run 1, dose range 2) came out at 10.5 µM. Under setting [2], the inhibition is 78.1%. The compound also came in with an IC50 (CXCR6, run 2, dose range 2) of 13.5 µM.
For the compound `CCCSc1cc(NCCOC(=O)CCC)c([N+](=O)[O-])c2nonc12`, the result was inactive. For the same compound, under setting [1], the IC50 came to 17.7 µM. The same compound came in with an IC50 (CXCR6, run 1, dose range 2) of 17.6 µM. Further, the inhibition under setting [2] came out at 112%. Moreover, for the setting “CXCR6, run 2, dose range 2”, the IC50 was 17.9 µM.
In the case of `CCN(CC(=O)NC(C)(C)C)Cc1nc2c(Br)cc(Br)cc2c(=O)[nH]1`, the result was inactive. Further, the IC50 under setting [1] was 13.1 µM. In addition, the half-inhibitory concentration (IC50) (CXCR6, run 1, dose range 2) came out at 12.4 µM. Moreover, the inhibition (CXCR6, run 2, dose range 1, at 39.5 µM (top of the series)) was 74.7%. Further, the IC50 (CXCR6, run 2, dose range 2) was 13.8 µM.
Take `Cc1ccc(OCC(=O)NNC(=S)NC(=O)C2CC2)c(C)c1`: the result was inactive. The IC50 under setting [1] came out at 14.2 µM. Where the note is “CXCR6, run 1, dose range 2”, this compound displayed an IC50 of 10.3 µM. The inhibition under setting [2] turned out to be 72.3%. Where the note is “CXCR6, run 2, dose range 2”, this compound came in with an IC50 of 18.1 µM.
In the same order, the values of `Cc1cccc(NC(=S)N/N=C/c2ccc([N+](=O)[O-])s2)c1` are “inactive”, 12.4 µM, 9.56 µM, 87.7% and 15.2 µM.
